According to patent US20100062465A1, “Detection of Histone Deacetylase Inhibition” (priority 2006, published 2010):

System: HDAC
Assay: Fluor de Lys fluorometric assay of HDAC activity in PC3 cells
Assay type: cell-based, human
Conditions: 24 h
Description: Briefly 20×10^3 cells/well were seeded in 96 well plates and incubated for 24 h with (a) 1 mM BLT (b) FSAHA at 2, 5, 10 μM (c) SAHA at 2, 5, 10 μM (d) FSAHA at 2, 5, 7, 8, 9, 10 μM in the presence of 1 mM BLT (e) FSAHA at 2, 5, 7, 8, 9, 10 μM in the presence of vehicle (DMSO). The Fluor de Lys substrate was then added for 1 h, medium removed, cells rinsed with PBS and incubated for 10 minutes with the Fluor-de-Lys developer, and fluorescence read at 460 nm using the Tecan microplate reader as above. Results were normalized to cell density as determined using the WST-1 assay in the same 96 well plate.

O=C(CCCCCCC(=O)Nc1ccccc1)NO [SAHA, suberoylanilide hydroxamic acid, reference compound]
HDAC activity (relative to controls) (2 μM): 84±10% | HDAC activity (relative to controls) (5 μM): 51±3% | HDAC activity (relative to controls) (10 μM): 29±3%
